Results from ChEMBL document CHEMBL3822442, “Synthesis and Pharmacological Characterization of Novel Glucagon-like Peptide-2 (GLP-2) Analogues with Low Systemic Clearance” (J Med Chem, 2016).

Experiments:
[1] = target: T1, Glucagon-like peptide 2 receptor (Homo sapiens, UniProt O95838); test: Agonist activity at human GLP2R expressed in HEK293 cells after 5 hrs by luciferase reporter gene assay; assay type: cell-based
T1 sequence (O95838 whole entry): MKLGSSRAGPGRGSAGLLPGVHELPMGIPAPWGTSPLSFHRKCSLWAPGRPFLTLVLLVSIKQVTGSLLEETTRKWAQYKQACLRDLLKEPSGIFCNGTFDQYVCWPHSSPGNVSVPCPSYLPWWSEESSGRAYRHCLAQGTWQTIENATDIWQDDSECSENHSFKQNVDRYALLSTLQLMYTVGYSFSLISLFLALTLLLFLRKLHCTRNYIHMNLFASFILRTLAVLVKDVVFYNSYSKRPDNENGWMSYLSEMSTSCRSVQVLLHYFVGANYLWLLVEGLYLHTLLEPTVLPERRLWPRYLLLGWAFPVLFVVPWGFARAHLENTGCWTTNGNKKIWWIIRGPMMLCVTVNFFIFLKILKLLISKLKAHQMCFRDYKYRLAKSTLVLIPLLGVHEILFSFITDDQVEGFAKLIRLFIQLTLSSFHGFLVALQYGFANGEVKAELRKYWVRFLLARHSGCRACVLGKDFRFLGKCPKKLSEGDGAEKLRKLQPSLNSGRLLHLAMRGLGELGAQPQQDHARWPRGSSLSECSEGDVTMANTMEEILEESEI

[2] = target: Glucagon-like peptide 1 receptor (Homo sapiens, UniProt P43220); test: Agonist activity at human GLP1R expressed in HEK293 cells after 5 hrs by luciferase reporter gene assay; assay type: cell-based
Sequence of Glucagon-like peptide 1 receptor (P43220 whole entry): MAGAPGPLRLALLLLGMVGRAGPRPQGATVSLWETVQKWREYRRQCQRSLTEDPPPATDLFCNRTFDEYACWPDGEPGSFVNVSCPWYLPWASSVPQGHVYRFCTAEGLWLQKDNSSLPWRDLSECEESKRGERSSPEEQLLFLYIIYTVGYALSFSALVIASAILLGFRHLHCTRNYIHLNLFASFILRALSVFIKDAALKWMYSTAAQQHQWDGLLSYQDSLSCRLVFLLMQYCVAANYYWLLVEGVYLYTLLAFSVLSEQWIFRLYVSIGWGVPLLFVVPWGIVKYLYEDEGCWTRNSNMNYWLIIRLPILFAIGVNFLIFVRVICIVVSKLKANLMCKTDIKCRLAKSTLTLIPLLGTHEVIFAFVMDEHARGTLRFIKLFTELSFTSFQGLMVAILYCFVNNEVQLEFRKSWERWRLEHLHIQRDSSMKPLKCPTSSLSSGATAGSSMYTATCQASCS

EC50 [1] | EC50 [2] | SMILES
0.31 nM | > 1000 nM | CCCC[C@H](NC(=O)[C@H](CCC(=O)O)NC(=O)[C@H](CC(=O)O)NC(=O)[C@H](CO)NC(=O)[C@H](Cc1ccccc1)NC(=O)[C@H](CO)NC(=O)CNC(=O)[C@H](CC(=O)O)NC(=O)CNC(=O)[C@@H](N)Cc1cnc[nH]1)C(=O)N[C@H](CC(C)C)C(=O)N[C@H](C(=O)N[C@H](C(=O)N[C@@H](CC(C)C)C(=O)N[C@@H](CC(=O)O)C(=O)N[C@@H](CC(N)=O)C(=O)N[C@@H](CC(C)C)C(=O)N[C@@H](C)C(=O)N[C@@H](C)C(=O)N[C@@H](CCCNC(=N)N)C(=O)N[C@@H](CC(=O)O)C(=O)N[C@@H](Cc1ccccc1)C(=O)N[C@H](C(=O)N[C@@H](CC(N)=O)C(=O)N[C@@H](Cc1c[nH]c2ccccc12)C(=O)N[C@@H](CC(C)C)C(=O)N[C@H](C(=O)N[C@@H](CCC(N)=O)C(=O)N[C@H](C(=O)N[C@@H](CCCCN)C(N)=O)[C@@H](C)O)[C@@H](C)CC)[C@@H](C)CC)[C@@H](C)CC)[C@@H](C)O
0.19 nM | > 1000 nM | CCCC[C@H](NC(=O)[C@H](CCC(=O)O)NC(=O)[C@H](CC(=O)O)NC(=O)[C@H](CO)NC(=O)[C@H](Cc1ccccc1)NC(=O)[C@H](CO)NC(=O)CNC(=O)[C@H](CC(=O)O)NC(=O)CNC(=O)[C@@H](N)Cc1cnc[nH]1)C(=O)N[C@@H](CC(N)=O)C(=O)N[C@H](C(=O)N[C@H](C(=O)N[C@@H](CC(C)C)C(=O)N[C@@H](CC(=O)O)C(=O)N[C@@H](Cc1cccc2ccccc12)C(=O)N[C@@H](CC(C)C)C(=O)N[C@@H](C)C(=O)N[C@@H](C)C(=O)N[C@@H](CCCNC(=N)N)C(=O)N[C@@H](CC(=O)O)C(=O)N[C@@H](Cc1ccccc1)C(=O)N[C@H](C(=O)N[C@@H](CC(N)=O)C(=O)N[C@@H](Cc1c[nH]c2ccccc12)C(=O)N[C@@H](CC(C)C)C(=O)N[C@H](C(=O)N[C@@H](CCC(N)=O)C(=O)N[C@H](C(=O)N[C@@H](CCCCN)C(N)=O)[C@@H](C)O)[C@@H](C)CC)[C@@H](C)CC)[C@@H](C)CC)[C@@H](C)O
0.35 nM | > 1000 nM | CCCC[C@H](NC(=O)[C@H](CCC(=O)O)NC(=O)[C@H](CC(=O)O)NC(=O)[C@H](CO)NC(=O)[C@H](Cc1ccccc1)NC(=O)[C@H](CO)NC(=O)CNC(=O)[C@H](CC(=O)O)NC(=O)CNC(=O)[C@@H](N)Cc1cnc[nH]1)C(=O)N[C@@H](CC(N)=O)C(=O)N[C@H](C(=O)N[C@H](C(=O)N[C@@H](CC(C)C)C(=O)N[C@@H](CC(=O)O)C(=O)N[C@@H](Cc1ccc(-c2ccccc2)cc1)C(=O)N[C@@H](CC(C)C)C(=O)N[C@@H](C)C(=O)N[C@@H](C)C(=O)N[C@@H](CCCNC(=N)N)C(=O)N[C@@H](CC(=O)O)C(=O)N[C@@H](Cc1ccccc1)C(=O)N[C@H](C(=O)N[C@@H](CC(N)=O)C(=O)N[C@@H](Cc1c[nH]c2ccccc12)C(=O)N[C@@H](CC(C)C)C(=O)N[C@H](C(=O)N[C@@H](CCC(N)=O)C(=O)N[C@H](C(=O)N[C@@H](CCCCN)C(N)=O)[C@@H](C)O)[C@@H](C)CC)[C@@H](C)CC)[C@@H](C)CC)[C@@H](C)O
0.05 nM | > 1000 nM | CCCC[C@H](NC(=O)[C@H](CCC(=O)O)NC(=O)[C@H](CC(=O)O)NC(=O)[C@H](CO)NC(=O)[C@H](Cc1ccccc1)NC(=O)[C@H](CO)NC(=O)CNC(=O)[C@H](CC(=O)O)NC(=O)CNC(=O)[C@@H](N)Cc1cnc[nH]1)C(=O)N[C@H](Cc1ccccc1)C(=O)N[C@H](C(=O)N[C@H](C(=O)N[C@@H](CC(C)C)C(=O)N[C@@H](CC(=O)O)C(=O)N[C@@H](CC(C)C)C(=O)N[C@@H](CC(C)C)C(=O)N[C@@H](C)C(=O)N[C@@H](C)C(=O)N[C@@H](CCCNC(=N)N)C(=O)N[C@@H](CC(=O)O)C(=O)N[C@@H](Cc1ccccc1)C(=O)N[C@H](C(=O)N[C@@H](CC(N)=O)C(=O)N[C@@H](Cc1c[nH]c2ccccc12)C(=O)N[C@@H](CC(C)C)C(=O)N[C@H](C(=O)N[C@@H](CCC(N)=O)C(=O)N[C@H](C(=O)N[C@@H](CCCCN)C(=O)N[C@H](C(=O)N[C@H](C(=O)N[C@@H](CC(=O)O)C(=O)NCC)[C@@H](C)O)[C@@H](C)CC)[C@@H](C)O)[C@@H](C)CC)[C@@H](C)CC)[C@@H](C)CC)[C@@H](C)O
0.13 nM | > 1000 nM | CCCC[C@H](NC(=O)[C@H](CCC(=O)O)NC(=O)[C@H](CC(=O)O)NC(=O)[C@H](CO)NC(=O)[C@H](Cc1ccccc1)NC(=O)[C@H](CO)NC(=O)CNC(=O)[C@H](CC(=O)O)NC(=O)CNC(=O)[C@@H](N)Cc1c[nH]cn1)C(=O)N[C@@H](CC(N)=O)C(=O)N[C@H](C(=O)N[C@H](C(=O)N[C@@H](CC(C)C)C(=O)N[C@@H](CC(=O)O)C(=O)N[C@@H](Cc1ccc2ccccc2c1)C(=O)N[C@@H](CC(C)C)C(=O)N[C@@H](C)C(=O)N[C@@H](C)C(=O)N[C@@H](CCCNC(=N)N)C(=O)N[C@@H](CC(=O)O)C(=O)N[C@@H](Cc1ccccc1)C(=O)N[C@H](C(=O)N[C@@H](CC(N)=O)C(=O)N[C@@H](Cc1c[nH]c2ccccc12)C(=O)N[C@@H](CC(C)C)C(=O)N[C@H](C(=O)N[C@@H](CCC(N)=O)C(=O)N[C@H](C(=O)N[C@@H](CCCCN)C(N)=O)[C@@H](C)O)[C@@H](C)CC)[C@@H](C)CC)[C@@H](C)CC)[C@@H](C)O
0.09 nM | 60 nM | CCCC[C@H](NC(=O)[C@H](CCC(=O)O)NC(=O)[C@H](CC(=O)O)NC(=O)[C@H](CO)NC(=O)[C@H](Cc1ccccc1)NC(=O)[C@H](CO)NC(=O)CNC(=O)[C@H](CC(=O)O)NC(=O)CNC(=O)[C@@H](N)Cc1cnc[nH]1)C(=O)N[C@H](Cc1ccc(Cl)cc1)C(=O)N[C@H](C(=O)N[C@H](C(=O)N[C@@H](CC(C)C)C(=O)N[C@@H](CC(=O)O)C(=O)N[C@@H](CC(N)=O)C(=O)N[C@@H](CC(C)C)C(=O)N[C@@H](C)C(=O)N[C@@H](C)C(=O)N[C@@H](CCCNC(=N)N)C(=O)N[C@@H](CC(=O)O)C(=O)N[C@@H](Cc1ccccc1)C(=O)N[C@H](C(=O)N[C@@H](CC(N)=O)C(=O)N[C@@H](Cc1c[nH]c2ccccc12)C(=O)N[C@@H](CC(C)C)C(=O)N[C@H](C(=O)N[C@@H](CCC(N)=O)C(=O)N[C@H](C(=O)N[C@@H](CCCCN)C(N)=O)[C@@H](C)O)[C@@H](C)CC)[C@@H](C)CC)[C@@H](C)CC)[C@@H](C)O
0.13 nM | > 1000 nM | CCCC[C@H](NC(=O)[C@H](CCC(=O)O)NC(=O)[C@H](CC(=O)O)NC(=O)[C@H](CO)NC(=O)[C@H](Cc1ccccc1)NC(=O)[C@H](CO)NC(=O)CNC(=O)[C@H](CC(=O)O)NC(=O)CNC(=O)[C@@H](N)Cc1c[nH]cn1)C(=O)N[C@@H](CC(N)=O)C(=O)N[C@H](C(=O)N[C@H](C(=O)N[C@@H](CC(C)C)C(=O)N[C@@H](CC(=O)O)C(=O)N[C@@H](Cc1ccc(N)cc1)C(=O)N[C@@H](CC(C)C)C(=O)N[C@@H](C)C(=O)N[C@@H](C)C(=O)N[C@@H](CCCNC(=N)N)C(=O)N[C@@H](CC(=O)O)C(=O)N[C@@H](Cc1ccccc1)C(=O)N[C@H](C(=O)N[C@@H](CC(N)=O)C(=O)N[C@@H](Cc1c[nH]c2ccccc12)C(=O)N[C@@H](CC(C)C)C(=O)N[C@H](C(=O)N[C@@H](CCC(N)=O)C(=O)N[C@H](C(=O)N[C@@H](CCCCN)C(N)=O)[C@@H](C)O)[C@@H](C)CC)[C@@H](C)CC)[C@@H](C)CC)[C@@H](C)O
